Measured values from the NIST ThermoML archive (doi:10.1021/je060107n).

Experiment: mn = molality of the nth substance listed, in mol/kg
Conditions: 101 kPa, Liquid; for mass density: Pycnometric method; for viscosity: Capillary tube (Ostwald / Ubbelohde) method; for speed of sound: Linear variable-path acoustic interferometer

CC(=O)[O-].CC(=O)[O-].[Mg+2] [magnesium acetate] + O
Conditions	mass density [kg/m3]	speed of sound [m/s]	viscosity [mPa·s]
310.45 K, m1 = 6.187	1273.1	–	–
310.6 K, m1 = 1.327	1082.8	–	–
310.7 K, m1 = 1.106	1070.3	–	–
310.8 K, m1 = 6.545	1280.7	–	–
310.85 K, m1 = 0.0414	996.1	–	–
310.85 K, m1 = 3.437	1189.2	–	–
310.95 K, m1 = 5.165	1244.3	–	–
311.2 K, m1 = 3.819	1201	–	–
311.25 K, m1 = 3.043	1168.8	–	–
311.35 K, m1 = 0.646	1039.6	–	–
311.4 K, m1 = 1.354	1083.9	–	–
311.65 K, m1 = 0.8751	1054	–	–
311.85 K, m1 = 0.0831	998.98	–	–
311.9 K, m1 = 4.547	1224.6	–	–
312.1 K, m1 = 0.4247	1024	–	–
312.15 K, m1 = 1.608	1099	–	–
312.3 K, m1 = 6.187	1271.8	–	–
312.45 K, m1 = 2.134	1126.3	–	–
312.55 K, m1 = 0.1671	1004.8	–	–
312.55 K, m1 = 2.622	1149.7	–	–
312.7 K, m1 = 6.545	1279.4	–	–
313.15 K, m1 = 0.0414	–	1532.2	0.6835
313.15 K, m1 = 0.0831	–	1539	0.7037
313.15 K, m1 = 0.1671	–	1547.7	0.7523
313.15 K, m1 = 0.4247	–	1582.3	0.9195
313.15 K, m1 = 0.646	–	1607.4	1.105
313.15 K, m1 = 0.8751	–	1635.6	1.294
313.15 K, m1 = 1.106	–	1659.1	1.573
313.15 K, m1 = 1.354	–	1679.3	1.887
313.15 K, m1 = 1.608	–	1704.6	1.887
313.15 K, m1 = 1.866	–	1728.4	2.771
313.15 K, m1 = 2.134	–	1752.5	3.404
313.15 K, m1 = 2.411	–	1778.6	4.373
313.15 K, m1 = 2.622	–	1787.1	4.948
313.15 K, m1 = 3.043	–	1815	6.797
313.15 K, m1 = 3.437	1188	1840.3	10.13
313.15 K, m1 = 3.819	–	1854.1	–
313.15 K, m1 = 4.001	–	–	15.43
313.15 K, m1 = 4.547	–	1878.9	–
313.15 K, m1 = 4.563	–	–	24.53
313.15 K, m1 = 4.929	–	–	30.41
313.15 K, m1 = 5.165	–	1896	–
313.15 K, m1 = 5.41	–	–	54.06
313.15 K, m1 = 5.732	–	–	71.46
313.15 K, m1 = 6.187	–	–	120
313.35 K, m1 = 0.0414	995.14	–	–
313.45 K, m1 = 1.327	1081.7	–	–
313.45 K, m1 = 1.866	1111.6	–	–
313.45 K, m1 = 3.819	1199.8	–	–
313.5 K, m1 = 1.106	1069.1	–	–
313.5 K, m1 = 3.043	1167.6	–	–
313.55 K, m1 = 5.732	1258.3	–	–
314 K, m1 = 4.547	1223.4	–	–
314.05 K, m1 = 1.354	1082.8	–	–
314.1 K, m1 = 2.411	1140.6	–	–
314.25 K, m1 = 0.646	1038.6	–	–
314.25 K, m1 = 6.187	1270.4	–	–
314.3 K, m1 = 0.8751	1052.9	–	–
314.35 K, m1 = 0.0831	997.91	–	–
314.5 K, m1 = 6.545	1278.1	–	–
314.65 K, m1 = 0.4247	1022.9	–	–
